Results as given in patent US11040119B2, “Compositions and methods for assessing neuromuscular function” (Biogen MA Inc., priority 2013, dated 2021).
“Also recorded” adds a separate entry of the source.

Tests used:
[1] = Simultaneous dual-radiotracer SPECT/CT imaging of 99mTc-Sestamibi and 201Tl-Cl uptake; assay type: in vivo, mouse and rat; conditions: FIG. 1; for retention in muscle: i.v. single injection of both agents, imaging 3 hours later
Description: This example describes an imaging approach for assessing skeletal muscle health by administering ^99mTc-Sestamibi and ^201Tl—Cl both in a single intravenous injection and then simultaneously detecting their accumulation into skeletal muscle through SPECT imaging via distinct radiation energy windows, which are specific for each isotope. Through this approach, each imaging agent alone, as well as the change in uptake of one agent relative to the other, was measured, permitting evaluation of multiple physiological processes in muscle simultaneously.
Imaging agents (^99mTc-Sestamibi and ^201Tl-Chloride) were ordered from commercial radiopharmacies for calibration and delivery on each day of SPECT imaging. Imaging agents were administered by intravenous injection in the lateral tail-vein. Animals were returned to their cages after injection for the distribution period or placed directly on the imaging system for SPECT acquisition, depending on the imaging protocol and desired time-points. For the imaging session, subjects were anesthetized using a gas mixture of isoflurane and oxygen. In-vivo SPECT and CT data were acquired using the NanoSPECT/CT® (Bioscan, Washington, D.C.), a dual modality imaging system that combines a 4-headed SPECT camera with a computed tomography (CT) acquisition system on the same axis of rotation. During imaging, subjects were placed on a heated bed with integrated anesthesia delivery and bed heating. The animals' body temperatures were maintained at 36 to 37° C. for the duration of image acquisition. Each imaging time-point included three scans: a planar x-ray scout scan, an x-ray CT scan for anatomical reference (6-9 min., 45-65 KVp, 180 angular projections per FOV), and a SPECT scan (20-90 min., 20 angular projections per FOV). SPECT data were reconstructed using the HiSPECT processing module (Scivis GmbH, Gottingen, Germany). […] Uptake and concentration of radiotracer were quantified in select regions-of-interest (ROI) using the VivoQuant™ post-processing suite. […]

[2] = prepared radiopharmaceutical; cited from earlier work
[3] = in vivo; cited from earlier work
[4] = system: skeletal muscle; experiment: Effect of neuromuscular stimulation with edrophonium on 99mTc-Sestamibi and 201Tl-Cl uptake into muscle (SPECT/CT); assay type: in vivo, rats
Description: In order to assess the action of neuromuscular stimulation on ^99mTc-Sestamibi and ^201Tl—Cl uptake into muscle we used the acetylcholinesterase inhibitor edrophonium (0.2 mg/kg, i.v.) to enhance ongoing neuromuscular synaptic transmission. We used three different cohorts of animals (n=3). In one cohort we examined baseline neuromuscular activity by giving the ^99mTc-Sestamibi and ^201Tl—Cl (listed as m/t in figure) at time zero and acquiring images under brief isoflurane anesthesia at 30 minutes post injection. Another cohort received edrophonium injection immediately following the m/t dosing but prior to the imaging under anesthesia. The last cohort received the edrophonium 30 minutes prior to the m/t dosing. This approach standardized the anesthesia and imaging phase of the experiment while making the edrophonium dose timing the only variable.
FIG. 4 is an exemplary schematic diagram of an experiment assessing the impact of edrophonium on the pharmacokinetics of ^99mTc-Sestamibi and ^201Tl—Cl. ^99mTc-Sestamibi and ^201Tl—Cl were imaged in three cohorts of rats (n of 3 each): control/baseline; prior to injection of 0.2 mg/kg of edrophonium; following injection of 0.2 mg/kg of edrophonium. Whole body SPECT/CT images were collected 30 minutes post-injection of the mixed ^99mTc-Sestamibi and ^201Tl—Cl dose. The drugs' gamma emissions of the radioisotopes (^99mTc and ^201Tl) were collected in separate energy windows, permitting simultaneous imaging of the relevant radiopharmaceuticals. […] Thallium uptake was increased by the introduction of edrophonium in control rats as indicated qualitatively by brighter muscle uptake on a common scale.
However, either pre- or post-m/t, edrophonium dosing had no effect on ^99mTc-Sestamibi uptake into muscle. FIG. 6 depicts comparison of radiopharmaceutical uptake in skeletal muscle between two imaging paradigms. The ‘+’ represents subjects that received an edrophonium injection (i.v.) immediately after radiotracer administration. […] All other aspects of data collection were identical between the ‘+’ and ‘−’ scenarios. Quantitative units of radioactivity per volume was expressed as uptake: percent injected dose (% ID), activity (mCi, kBq).

[5] = system: skeletal muscle; experiment: Effect of continuous isoflurane anesthesia on muscle uptake of the two radiopharmaceutical agents (SPECT); assay type: in vivo; conditions: continuous anesthesia through 30 minute uptake period vs awake uptake period; right and left legs; FIG. 3
Description: Imaging agents (^99mTc-Sestamibi and ^201Tl-Chloride) were ordered from commercial radiopharmacies for calibration and delivery on each day of SPECT imaging. Imaging agents were administered by intravenous injection in the lateral tail-vein. Animals were returned to their cages after injection for the distribution period or placed directly on the imaging system for SPECT acquisition, depending on the imaging protocol and desired time-points. For the imaging session, subjects were anesthetized using a gas mixture of isoflurane and oxygen. In-vivo SPECT and CT data were acquired using the NanoSPECT/CT® (Bioscan, Washington, D.C.), a dual modality imaging system that combines a 4-headed SPECT camera with a computed tomography (CT) acquisition system on the same axis of rotation. During imaging, subjects were placed on a heated bed with integrated anesthesia delivery and bed heating. The animals' body temperatures were maintained at 36 to 37° C. for the duration of image acquisition. […] Uptake and concentration of radiotracer were quantified in select regions-of-interest (ROI) using the VivoQuant™ post-processing suite.
This need for imaging under anesthesia in animals is not necessary in human imaging studies. […] Quantitative units of radioactivity per volume was expressed as uptake: percent injected dose (% ID), activity (mCi, kBq). […]

[6] = edrophonium i.v. immediately after radiotracer administration vs none, FIG. 6

Compound: [Cl][201Tl] [^201Tl—Cl, ^201Thallium-Chloride]
- retention in muscle [1]: consistent retention
- muscle accumulation, extent relative to 99mTc-Sestamibi ([1]; i.v., imaging 3 hours post-injection): more widespread

Compound: [C-]#[N+]CC(C)(C)OC.[C-]#[N+]CC(C)(C)OC.[C-]#[N+]CC(C)(C)OC.[C-]#[N+]CC(C)(C)OC.[C-]#[N+]CC(C)(C)OC.[C-]#[N+]CC(C)(C)OC.[Tc] [^99mTc-Sestamibi]
- retention in muscle [1]: consistent retention
- stability [2]: 6 h
- biological half-life [3]: long
- extraction efficiency [3]: high

Compound: CC[N+](C)(C)c1cccc(O)c1 [edrophonium]
- 99mTc-Sestamibi uptake into muscle ([4]; edrophonium 0.2 mg/kg i.v., either pre- or post-m/t dosing, images 30 minutes post-injection): no effect
- 201Tl uptake into muscle ([4]; edrophonium 0.2 mg/kg i.v., pre- or post-m/t dosing vs baseline, images 30 minutes post-injection, FIG. 5): dramatically enhanced; also recorded: increased
- 99mTc-Sestamibi uptake in skeletal muscle, statistical evaluation [4, 6]: not
- 201Tl uptake in skeletal muscle, statistical evaluation [4, 6]: highly significant edrophonium effect

Compound: FC(F)OC(Cl)C(F)(F)F (centres unmarked) [isoflurane]
- accumulation of both agents (99mTc-Sestamibi and 201Tl-Cl) into muscle [5]: inhibited

Compound: ^99mTc-Teboroxime
- stability [2]: 6 h
- biological half-life [3]: short
- extraction efficiency [3]: high
